Reference: patent US20240400577A1, “MODULATORS OF PROTEIN KINASES” (VIBLIOME THERAPEUTICS, LLC, priority 2021, published 2024)

Tests used:
Assay in all cases: Kinase panel enzymatic inhibition assay (Nanosyn)
Assay type in all cases: biochemical
AXL = biological target: T1, AXL (Homo sapiens, UniProt P30530); conditions: ATP at Km; 30-minute pre-incubation; read-out: kinase inhibition in terms of IC50, AXL
T1 construct: Nanosyn (contract laboratory that ran the panel)
T1 sequence (P30530 26-894): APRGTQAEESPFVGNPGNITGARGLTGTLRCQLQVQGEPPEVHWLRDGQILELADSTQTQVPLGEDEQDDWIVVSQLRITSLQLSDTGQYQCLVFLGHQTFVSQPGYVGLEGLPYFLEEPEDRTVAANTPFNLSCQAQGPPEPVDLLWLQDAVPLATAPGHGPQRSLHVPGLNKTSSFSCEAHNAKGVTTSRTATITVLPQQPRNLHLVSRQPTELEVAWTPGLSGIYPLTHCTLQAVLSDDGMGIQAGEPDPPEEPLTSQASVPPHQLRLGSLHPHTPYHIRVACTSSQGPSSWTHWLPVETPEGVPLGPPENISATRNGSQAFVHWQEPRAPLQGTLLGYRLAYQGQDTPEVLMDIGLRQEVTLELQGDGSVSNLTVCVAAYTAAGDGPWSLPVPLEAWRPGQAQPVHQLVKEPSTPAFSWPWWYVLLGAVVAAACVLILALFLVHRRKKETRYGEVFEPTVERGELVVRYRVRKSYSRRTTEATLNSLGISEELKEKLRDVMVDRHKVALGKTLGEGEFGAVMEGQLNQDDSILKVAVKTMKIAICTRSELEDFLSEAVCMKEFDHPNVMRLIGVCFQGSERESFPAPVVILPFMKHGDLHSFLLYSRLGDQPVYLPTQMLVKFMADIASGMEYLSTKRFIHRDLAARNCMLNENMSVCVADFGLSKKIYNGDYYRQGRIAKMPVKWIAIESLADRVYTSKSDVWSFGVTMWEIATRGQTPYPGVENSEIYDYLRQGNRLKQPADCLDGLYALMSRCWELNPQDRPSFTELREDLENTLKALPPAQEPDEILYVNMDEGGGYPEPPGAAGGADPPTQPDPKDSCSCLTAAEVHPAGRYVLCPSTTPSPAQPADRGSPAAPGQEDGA
Method in brief: (§1)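 Single-point screen: compound 5 μM, ATP at Km per kinase, 30 min pre-incubation. Readout by mobility shift (Caliper LabChip), ADP detection or TR-fluorescence. Reported as % inhibition or IC50.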

MER = biological target: T2, MER (Homo sapiens, UniProt Q12866); conditions: ATP at Km; 30-minute pre-incubation; read-out: kinase inhibition in terms of IC50, MER
T2 construct: Nanosyn (contract laboratory that ran the panel)
T2 sequence (Q12866 21-999): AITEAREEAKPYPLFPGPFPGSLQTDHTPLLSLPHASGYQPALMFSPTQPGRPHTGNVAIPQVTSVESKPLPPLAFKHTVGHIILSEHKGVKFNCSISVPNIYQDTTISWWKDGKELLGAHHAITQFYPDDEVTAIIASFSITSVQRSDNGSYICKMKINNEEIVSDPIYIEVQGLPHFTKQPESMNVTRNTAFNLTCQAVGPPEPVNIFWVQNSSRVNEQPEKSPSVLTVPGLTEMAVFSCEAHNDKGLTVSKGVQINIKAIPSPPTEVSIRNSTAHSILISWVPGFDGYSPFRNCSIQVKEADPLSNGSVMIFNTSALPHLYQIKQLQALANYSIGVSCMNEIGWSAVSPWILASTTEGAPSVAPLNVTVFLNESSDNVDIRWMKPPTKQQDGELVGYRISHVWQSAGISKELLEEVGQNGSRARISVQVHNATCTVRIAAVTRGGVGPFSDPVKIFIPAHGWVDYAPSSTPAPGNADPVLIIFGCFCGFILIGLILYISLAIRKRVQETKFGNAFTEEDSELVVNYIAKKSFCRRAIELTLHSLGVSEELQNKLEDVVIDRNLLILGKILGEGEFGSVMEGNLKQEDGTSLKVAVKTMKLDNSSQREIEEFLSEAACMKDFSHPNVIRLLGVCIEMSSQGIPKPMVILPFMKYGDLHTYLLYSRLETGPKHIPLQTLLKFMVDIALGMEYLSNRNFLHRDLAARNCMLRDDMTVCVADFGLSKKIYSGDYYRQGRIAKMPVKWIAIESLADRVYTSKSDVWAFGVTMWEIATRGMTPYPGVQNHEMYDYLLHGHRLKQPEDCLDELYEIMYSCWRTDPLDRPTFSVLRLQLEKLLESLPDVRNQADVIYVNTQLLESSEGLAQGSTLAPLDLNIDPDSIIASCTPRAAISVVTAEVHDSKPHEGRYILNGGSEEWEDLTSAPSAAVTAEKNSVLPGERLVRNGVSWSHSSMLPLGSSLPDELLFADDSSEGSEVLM
Method in brief: as §1

PLK1 = biological target: T3, PLK1 (Homo sapiens, UniProt P53350); conditions: ATP at Km; 30-minute pre-incubation; read-out: kinase inhibition in terms of IC50, PLK1
T3 construct: Nanosyn (contract laboratory that ran the panel)
Method in brief: as §1

TAK1-TAB1 = biological target: T4, TAK1-TAB1 (Homo sapiens, UniProt O43318); conditions: ATP at Km; 30-minute pre-incubation; read-out: kinase inhibition in terms of IC50, TAK1-TAB1
T4 construct: purchased Nanosyn
T4 sequence (O43318 with tags, fused parts or gaps limits assumed): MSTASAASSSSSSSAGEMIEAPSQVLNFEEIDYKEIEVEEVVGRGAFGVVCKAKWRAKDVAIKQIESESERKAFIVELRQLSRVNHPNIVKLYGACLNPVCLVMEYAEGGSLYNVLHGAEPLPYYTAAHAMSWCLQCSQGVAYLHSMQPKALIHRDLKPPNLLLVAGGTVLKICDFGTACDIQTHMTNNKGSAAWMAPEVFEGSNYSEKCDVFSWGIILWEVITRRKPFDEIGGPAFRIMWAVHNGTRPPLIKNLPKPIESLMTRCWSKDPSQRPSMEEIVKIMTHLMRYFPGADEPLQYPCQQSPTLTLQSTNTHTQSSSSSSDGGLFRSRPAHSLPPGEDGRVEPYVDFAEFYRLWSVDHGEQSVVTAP
Method in brief: as §1

T3 sequence (P53350 whole entry): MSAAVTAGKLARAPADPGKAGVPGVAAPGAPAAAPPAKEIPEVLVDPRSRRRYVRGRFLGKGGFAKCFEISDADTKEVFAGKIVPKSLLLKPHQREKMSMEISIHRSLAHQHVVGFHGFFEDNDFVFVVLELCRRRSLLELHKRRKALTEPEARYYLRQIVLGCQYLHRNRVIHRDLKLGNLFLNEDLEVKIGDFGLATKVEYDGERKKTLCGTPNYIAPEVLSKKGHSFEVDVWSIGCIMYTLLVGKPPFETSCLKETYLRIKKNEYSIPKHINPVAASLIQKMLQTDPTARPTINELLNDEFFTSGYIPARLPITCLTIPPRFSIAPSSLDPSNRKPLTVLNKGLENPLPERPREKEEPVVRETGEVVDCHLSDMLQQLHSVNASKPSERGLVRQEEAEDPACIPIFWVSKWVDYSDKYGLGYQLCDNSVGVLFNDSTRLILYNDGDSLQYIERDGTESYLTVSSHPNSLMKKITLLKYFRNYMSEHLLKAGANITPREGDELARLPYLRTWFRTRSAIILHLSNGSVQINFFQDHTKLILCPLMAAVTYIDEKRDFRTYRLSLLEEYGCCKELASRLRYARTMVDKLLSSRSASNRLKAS

IC50 (AXL) [µM] | IC50 (MER) [µM] | IC50 (PLK1) [µM] | IC50 (TAK1-TAB1) [µM] | Structure (SMILES)
< 0.5 | < 0.5 | ≥ 10 | ≥ 10 | COc1cc2nccc(Oc3ccc(NC(=O)c4cc(S(C)(=O)=O)n(-c5ccc(F)cc5)n4)c(F)c3)c2cc1OC [Ex71, N-(4-((6,7-dimethoxyquinolin-4-yl)oxy)-2-fluorophenyl)-1-(4-fluorophenyl)-5-(methylsulfonyl)-1H-pyrazole-3-carboxamide]
< 0.5 | 0.5 to 1 | ≥ 10 | ≥ 10 | COc1cc2nccc(Oc3ccc(NC(=O)c4cc(S(C)(=O)=O)n(-c5ccc(F)cc5)n4)cc3)c2cc1OC [Ex72, N-(4-((6,7-dimethoxyquinolin-4-yl)oxy)phenyl)-1-(4-fluorophenyl)-5-(methylsulfonyl)-1H-pyrazole-3-carboxamide]
< 0.5 | < 0.5 | ≥ 10 | ≥ 10 | COc1cc2nccc(Oc3ccc(NC(=O)c4cc(S(C)(=O)=O)n(-c5ccc(F)cc5)n4)cc3F)c2cc1OC [Ex73, N-(4-((6,7-dimethoxyquinolin-4-yl)oxy)-3-fluorophenyl)-1-(4-fluorophenyl)-5-(methylsulfonyl)-1H-pyrazole-3-carboxamide]
